Measured values as given in US20250177430A1, “Compositions Comprising NAD+ and Associated Methods of Treatment” (priority 2022, published 2025).

Key:
[1] = system: dissociative experience and discomfort; experiment: Tolerability and dissociative effects in treated patients
From the text: The individual components of the composition can be administered individually.

[2] = system: anxiety and depression; experiment: Treatment of anxiety and depression patients, delivery by SphenoCath, subjective and family reports; format: in vivo, human; conditions: Patient 2; single IV treatment, about 30 mg
Protocol: Patient continued treatment over the course of a six-month period on an as-needed basis, which ranged from twice a week to every other month.
Inventor and patient decided to begin with the fairly typical six treatment induction phase used by IV ketamine clinics, but deliver it using the SphenoCath to the sphenopalatine foramen.
The fourth treatment was 2 ml of the combination with concentrations of 80 mg/ml NAD+, 12.5 mg/ml ketamine, and 5 mg/ml. […] Several of the treatments included a rotation of the head. For example, the combination was administered to the Patient and the head was rotated 30 degrees to the right for 5 minutes, then 30 degrees to the left for 5 minutes and then neutral for 5 minutes. Other times the head was rotated to the right at 30 degrees for 5 minutes, then 30 degrees to the left for 5 minutes and then neutral for 5 minutes.
Patient 5 completed the GAD 7 and PHQ 9 screening tools before treatment and two weeks after completion of the series. […] Patient returned for “booster” treatments four months later. […] The treatment regime also included 30-degree rotation to the right for 5 minutes, then 30-degree rotation to the left for 5 minutes, finally neutral for 5 minutes.
The first treatment was 1.8 ml of the combination with concentrations of 55 mg/ml NAD+, 14 mg/ml ketamine, 3 mg/ml. […]

[3] = system: opiate withdrawal symptoms; experiment: Treatment of opiate/heroin withdrawal patients, delivery by SphenoCath to the sphenopalatine foramen; format: in vivo, human
From the text: A device called the SphenoCath has been used to administer medication to the sphenopalatine foramen. The SphenoCath is a curved flexible catheter with a semi-rigid retractable sheath overlaying the catheter attached to a syringe. The SphenoCath is inserted through the nostril, until the tip of the SphenoCath reaches the anterior roof of the nasal cavity. The sheath of the SphenoCath is retracted allowing the curved inner catheter to drop over the anterior aspect of the middle turbinate. With the head correctly positioned medication is reliably dispensed to the area of the membrane covering the sphenopalatine foramen, and then through absorption into the pterygopalatine fossa and the nerves contained therein.
At the eleventh treatment dexamethasone was added to the combination. […] The treatment including dexamethasone was repeated 2 more times.

[4] = system: migraine and facial pain; conditions: through the sphenopalatine foramen into the pterygopalatine fossa; inventor's patients

## CNC1(c2ccccc2Cl)CCCCC1=O (centres unmarked) [ketamine]
[1]; IV and intranasal, compared with mixture of NAD+, lidocaine and ketamine
  patient experience with ketamine alone: more intense and dissociative experience
[1]; Patient 2, IV at a ketamine clinic, stopped after about 30 mg
  patient experience of IV ketamine: very dissociative and unpleasant experience
[1]; Patient 2, single IV treatment, about 30 mg
  time until patient felt fine after discontinuation: 30 to 45 min
[1]; Patient 4, 15 minutes after intranasal delivery to sphenopalatine foramen, slightly lower dose than in the combined treatment
  patient state after ketamine alone: very agitated and uncomfortable
[2]
  effect on mood: about the same as the intranasal treatments

## CCN(CC)CC(=O)Nc1c(C)cccc1C [lidocaine]
[3]; person, SphenoCath, treated twice 48 hours apart
  opiate withdrawal symptoms: noticeably improved
[3]; person, buprenorphine was necessary for previous detox episodes
  need for buprenorphine during withdrawal: able to go through withdrawal without the use bupenophrine
[4]
  treatment success in chronic/acute migraine, cluster headache, trigeminal and postherpetic neuralgia, post-concussion headache: successful in most cases

## NC(=O)c1ccc[n+]([C@@H]2O[C@H](COP(=O)([O-])OP(=O)(O)OC[C@H]3O[C@@H](n4cnc5c(N)ncnc54)[C@H](O)[C@@H]3O)[C@@H](O)[C@H]2O)c1 [NAD+]
[1]; NAD+ administered individually
  patient experience on receiving the component individually: less pleasant and can lead to discomfort
[1]; NAD+ in composition with lidocaine and ketamine
  effect on dissociative effects of the NMDA receptor antagonist: significantly diminishes the dissociative effects
[3]; added to lidocaine, general observation
  effect of adding NAD+ on chemical dependency (withdrawal symptoms and cravings): significantly enhanced the effect on chemical dependency
